Test results: patent US9340575B2, “Agonists and antagonists of the urotensinergic system” (INSTITUT NATIONAL DE LA RECHERCHE SCIENTIFIQUE, priority 2011, dated 2016)
Several values for one entry are separate records, joined by “and”; a condition that tells them apart may be missing. Identical values can stand only once.

How the values were obtained:
[1] = test system: rat thoracic aorta rings; assay: Antagonism of UII- or URP-induced contraction of rat aortic ring; assay type: cell-based
Procedure: Male rats (Sprague-Dawley, 250-300 g) were killed by CO2 asphyxiation. The thoracic aorta was then cleared of surrounding tissues and excised from aortic arch to the diaphragm. From each vessel, conjunctive tissues were removed and the clean vessel was cut into 4 mm rings. The endothelium was removed by gently rubbing the vessel's intimal surface. All preparations were placed in 5 ml organ baths filled with oxygenated normal Krebs-Henselheit solution. Contractile responses to 40 mM KCl were used as control at the beginning and at the end of each experiment. Agonistic activity was measured by increasing the concentration of the peptide in the organ chamber (3×10^−11-3×10^−6 M). For antagonist behaviour, thoracic aortic rings were first exposed to URP derivative over a period of 15 min, and then cumulative concentration-response curves to hUII, URP or ET-1 (10^−10-3×10^−6 M) were constructed. The amplitude of the contraction induced by each concentration of peptide was expressed as a percentage of the KCl-induced contraction. Finally, the ability of the antagonist to reverse the hUII-induced contraction was also evaluated. Vessels were pre-contracted with 4 nM hUII (pre-determined EC80) and after the maximum contraction was attained, contractile tone was reversed by adding increasing log unit concentrations of URP derivative. […] Binding and functional experiments were performed at least in triplicate and data, expressed as mean±S.E.M, were analyzed using the Prism software (Graph Pad Software, San Diego, Calif.). In all experiments, n represents the total number of animals studied or individual assays performed. The EC50, pEC50, pIC50 values as well as the Emax value were determined from the concentration-response curves using a sigmoidal dose-response fit with variable slope. Non-competitive antagonist affinities (pKb) were determined using the method of Gaddum where equiactive concentrations of agonist, in the absence or presence of URP derivative, were compared in a linear regression. The resulting slope was used to calculate the equilibrium constant Kb using the following equation: Kb=[B]/(slope−1); where [B] is the antagonist concentration. The slope is calculated from the double reciprocal plot of equiactive concentrations of agonist in the presence and absence of antagonist.

[2] = test system: rat isolated aorta; assay: Reversal of hUII-induced contractile tone in rat isolated aorta; assay type: cell-based; details: tone established with 4 nM hUII (EC80)
Procedure: Male rats (Sprague-Dawley, 250-300 g) were killed by CO2 asphyxiation. The thoracic aorta was then cleared of surrounding tissues and excised from aortic arch to the diaphragm. From each vessel, conjunctive tissues were removed and the clean vessel was cut into 4 mm rings. The endothelium was removed by gently rubbing the vessel's intimal surface. All preparations were placed in 5 ml organ baths filled with oxygenated normal Krebs-Henselheit solution. Contractile responses to 40 mM KCl were used as control at the beginning and at the end of each experiment. Agonistic activity was measured by increasing the concentration of the peptide in the organ chamber (3×10^−11-3×10^−6 M). For antagonist behaviour, thoracic aortic rings were first exposed to URP derivative over a period of 15 min, and then cumulative concentration-response curves to hUII, URP or ET-1 (10^−10-3×10^−6 M) were constructed. The amplitude of the contraction induced by each concentration of peptide was expressed as a percentage of the KCl-induced contraction. Finally, the ability of the antagonist to reverse the hUII-induced contraction was also evaluated. Vessels were pre-contracted with 4 nM hUII (pre-determined EC80) and after the maximum contraction was attained, contractile tone was reversed by adding increasing log unit concentrations of URP derivative.

[3] = test system: anaesthetized rats; assay: Hemodynamic assessment (arterial blood pressure) in anaesthetized rats; assay type: in vivo, rat; details: for Intrinsic effect on blood pressure: anaesthetized rats
Procedure: Male Sprague-Dawley rats, weighing 350-400 g, were anaesthetized by isoflurane inhalation delivered in 100% oxygen (1 l/min) from an Ohmeda Tec 4 anaesthetic vaporizer (Somatechnology, Inc., Bloomfield, Conn., USA). Anaesthesia was maintained by mask inhalation of isoflurane vaporized at concentrations of up to 3% in the induction phase, at 1.5% during acute surgical procedures and at 0.8-1.0% during experimental observations. […]. […] A period of stabilisation of 30 min was observed and the following experimental protocols were then performed and arterial blood pressure was evaluated. During isoflurane inhalation, no breathing complications or changes in blood pressure were observed. […].
In a preliminary study, individual rats received a single i.v. injection of hUII ranging from 1 to 30 nmol/kg. A dose-response curve, reflecting the effect of hUII on the change in blood pressure, was then determined.
In this set of experiments, five groups of rats were used. […] […]. Hemodynamic changes were continuously captured by the pressure probe over a period of 1 h. The maximum rise and the maximum drop in blood pressure was determined and analyzed using the PowerLab software (ADInstruments, Colorado Springs, Colo., USA).
In the control group, the rats received two doses of hUII (10 nmol/kg) with a 30 min interval between the first and second injection.

[4] = 1000 nmol/kg bolus, 30 min before hUII 10 nmol/kg

CC(C)[C@H](NC(=O)[C@@H]1CSSC[C@H](NC(=O)[C@H](C)N)C(=O)N[C@@H](Cc2ccccc2)C(=O)N[C@@H](Cc2ccc(-c3ccccc3)cc2)C(=O)N[C@@H](CCCCN)C(=O)N[C@@H](Cc2ccc(O)cc2)C(=O)N1)C(=O)O [[Bip^4]URP, H-Ala-Cys-Phe-Bip-Lys-Tyr-Cys-Val-OH]
Effect on URP-induced contraction (in words) [1]: but not URP
Effect on hUII-induced contraction (in words) [1]: suppressed the maximum contractile response to hUII in a concentration-dependent manner
pKb (non-competitive antagonism of hUII) ([1]; 1 μM [Bip^4]URP, method of Gaddum): 7.15
Slope of double reciprocal plot of equiactive hUII concentrations (method of Gaddum) ([1]; absence and presence of 1 μM [Bip^4]URP): 15.00±0.62 and 15.0±0.6
Suppression of contractile tone [2]: 92%
pIC50 for reversal of contractile tone [2]: 7.72±0.15
Effect on hUII hemodynamic profile ([3]; 0.1 μmol/kg): no effect
Intrinsic effect on blood pressure ([3]; 100 nmol/kg (0.1 μmol/kg) i.v.): No effect
Intrinsic effect on blood pressure ([3]; 100 nmol/kg (0.1 μmol/kg) i.v., listed as urocontrin): no detectable effect
Intrinsic effect on blood pressure ([3]; 1000 nmol/kg (1 μmol/kg) i.v.): hypotensive effect comparable with that of hUII
Intrinsic effect on blood pressure ([3]; 1000 nmol/kg (1 μmol/kg) i.v., listed as urocontrin): hypotension comparable with that of hUII
Effect on hUII hypotensive action [3, 4]: significantly reduced
Effect on hUII pressor effect [3, 4]: keeping intact
Effect on hUII pressor effect ([3]; 1000 nmol/kg bolus, 30 min before hUII 10 nmol/kg, listed as urocontrin): preserving
Effect on biphasic response induced by URP ([3]; 1000 nmol/kg, URP 10 nmol/kg): no effect
Response to a second hUII injection after pre-treatment ([3]; [Bip^4]URP 1000 nmol/kg 30 min before two hUII doses (10 nmol/kg, 30 min interval)): complete absence of a response
